Assay results published in PubChem BioAssay (NCI).
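Compound exposure: 48 hours, 5 concentrations, 96-well plates. Definition used: TGI = concentration required for complete inhibition of growth.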

Columns and labels:
Test in all cases: NCI-60 cell line screen, 48 h
LOX IMVI melanoma = test system: LOX IMVI melanoma
NCI-H460 lung = test system: NCI-H460 lung
SF-295 CNS = test system: SF-295 CNS
HOP-62 NSCLC = test system: HOP-62 NSCLC
HCC-2998 colon = test system: HCC-2998 colon
BT-549 breast = test system: BT-549 breast
K-562 leukemia = test system: K-562 leukemia
EKVX NSCLC = test system: EKVX NSCLC
UACC-62 melanoma = test system: UACC-62 melanoma
OVCAR-8 ovarian = test system: OVCAR-8 ovarian
MDA-MB-435 = test system: MDA-MB-435
A549 NSCLC = test system: A549 NSCLC
HOP-92 NSCLC = test system: HOP-92 NSCLC
OVCAR-5 ovarian = test system: OVCAR-5 ovarian
NCI-H522 lung = test system: NCI-H522 lung
UACC-257 melanoma = test system: UACC-257 melanoma
OVCAR-3 ovarian = test system: OVCAR-3 ovarian
NCI-H23 lung = test system: NCI-H23 lung
TK-10 renal = test system: TK-10 renal
SF-268 CNS = test system: SF-268 CNS
MDA-N = test system: MDA-N
ACHN renal = test system: ACHN renal
HCT-116 colon = test system: HCT-116 colon
RXF 393 renal = test system: RXF 393 renal
CAKI-1 renal = test system: CAKI-1 renal
RPMI-8226 leukemia = test system: RPMI-8226 leukemia
UO-31 renal = test system: UO-31 renal
CCRF-CEM leukemia = test system: CCRF-CEM leukemia
NCI/ADR-RES ovarian = test system: NCI/ADR-RES ovarian
SW-620 colon = test system: SW-620 colon
NCI-H226 lung = test system: NCI-H226 lung
IGROV1 ovarian = test system: IGROV1 ovarian
SR leukemia = test system: SR leukemia
MCF7 breast = test system: MCF7 breast
HT29 colon = test system: HT29 colon
786-0 renal = test system: 786-0 renal
HCT-15 colon = test system: HCT-15 colon
SNB-19 CNS = test system: SNB-19 CNS
M14 melanoma = test system: M14 melanoma
MDA-MB-231 breast = test system: MDA-MB-231 breast
MALME-3M melanoma = test system: MALME-3M melanoma
SK-MEL-28 melanoma = test system: SK-MEL-28 melanoma
SK-MEL-5 melanoma = test system: SK-MEL-5 melanoma
SK-OV-3 ovarian = test system: SK-OV-3 ovarian
KM12 colon = test system: KM12 colon
PC-3 prostate = test system: PC-3 prostate
SK-MEL-2 melanoma = test system: SK-MEL-2 melanoma
U251 CNS = test system: U251 CNS
MOLT-4 leukemia = test system: MOLT-4 leukemia
T-47D breast = test system: T-47D breast
COLO 205 colon = test system: COLO 205 colon
OVCAR-4 ovarian = test system: OVCAR-4 ovarian
A498 renal = test system: A498 renal
SF-539 CNS = test system: SF-539 CNS
HS 578T breast = test system: HS 578T breast
SNB-75 CNS = test system: SNB-75 CNS
HL-60(TB) leukemia = test system: HL-60(TB) leukemia
SN12C renal = test system: SN12C renal
DU-145 prostate = test system: DU-145 prostate

Work on CN(C)CCNc1ccc2ncnc3c2c1C(=O)c1ccccc1-3 yielded a TGI (LOX IMVI melanoma) of 10.5 µM, a TGI (NCI-H460 lung) of 5.01 µM and a TGI (SF-295 CNS) of 2.88 µM. For the same molecule, the TGI (HOP-62 NSCLC) was 3.25 µM, the TGI (HCC-2998 colon) was 2.92 µM and the TGI (BT-549 breast) was 21 µM. The TGI (K-562 leukemia) was 6.75 µM, the TGI (EKVX NSCLC) was 5.67 µM and the TGI (UACC-62 melanoma) was 4.92 µM. For the same molecule, the TGI (OVCAR-8 ovarian) was 10.5 µM, the TGI (MDA-MB-435) was 6.21 µM and the TGI (A549 NSCLC) was 1.73 µM. The TGI (HOP-92 NSCLC) was 8.43 µM, the TGI (OVCAR-5 ovarian) was 3.42 µM and the TGI (NCI-H522 lung) was 0.982 µM. It also gave a TGI (UACC-257 melanoma) of 11.5 µM, a TGI (OVCAR-3 ovarian) of 10.1 µM and a TGI (NCI-H23 lung) of 3.4 µM. It also gave a TGI (TK-10 renal) of 3.92 µM, a TGI (SF-268 CNS) of 4.48 µM and a TGI (MDA-N) of 4.11 µM. For the same molecule, the TGI (ACHN renal) was 8.77 µM, the TGI (HCT-116 colon) was 1.71 µM and the TGI (RXF 393 renal) was 2.32 µM. It also gave a TGI (CAKI-1 renal) of 2.01 µM, a TGI (RPMI-8226 leukemia) of 3.83 µM and a TGI (UO-31 renal) of 12.9 µM. The TGI (CCRF-CEM leukemia) was 2.89 µM, the TGI (NCI/ADR-RES ovarian) was 5.28 µM and the TGI (SW-620 colon) was 3.81 µM. It also gave a TGI (NCI-H226 lung) of 3.74 µM, a TGI (IGROV1 ovarian) of 0.574 µM and a TGI (SR leukemia) of 0.915 µM. It also gave a TGI (MCF7 breast) of 2.57 µM, a TGI (HT29 colon) of 2.98 µM and a TGI (786-0 renal) of 5.47 µM. For the same molecule, the TGI (HCT-15 colon) was 13.5 µM, the TGI (SNB-19 CNS) was 29.8 µM and the TGI (M14 melanoma) was 1.42 µM. For the same molecule, the TGI (MDA-MB-231 breast) was 4.1 µM, the TGI (MALME-3M melanoma) was 2.38 µM and the TGI (SK-MEL-28 melanoma) was 10.9 µM. The TGI (SK-MEL-5 melanoma) was 4.99 µM, the TGI (SK-OV-3 ovarian) was > 72.4 µM and the TGI (KM12 colon) was 4.55 µM. For the same molecule, the TGI (PC-3 prostate) was 7.21 µM, the TGI (SK-MEL-2 melanoma) was 10.8 µM and the TGI (U251 CNS) was 17.9 µM. It also gave a TGI (MOLT-4 leukemia) of 2.31 µM, a TGI (T-47D breast) of 24.7 µM and a TGI (COLO 205 colon) of 15.5 µM. For the same molecule, the TGI (OVCAR-4 ovarian) was 4.27 µM, the TGI (A498 renal) was 9.25 µM and the TGI (SF-539 CNS) was 17 µM. For the same molecule, the TGI (HS 578T breast) was 15.1 µM, the TGI (SNB-75 CNS) was 6.96 µM and the TGI (HL-60(TB) leukemia) was > 23.6 µM. For the same molecule, the TGI (SN12C renal) was 13.9 µM.
For COc1ccc(/C(CCl)=C(\Nc2ccccc2)c2ccc(OC)c(OC)c2)cc1OC, the TGI (LOX IMVI melanoma) was > 100 µM, the TGI (NCI-H460 lung) was > 100 µM and the TGI (SF-295 CNS) was > 100 µM. For the same molecule, the TGI (HOP-62 NSCLC) was > 100 µM, the TGI (HCC-2998 colon) was > 100 µM and the TGI (BT-549 breast) was > 100 µM. The TGI (K-562 leukemia) was > 100 µM, the TGI (EKVX NSCLC) was > 100 µM and the TGI (UACC-62 melanoma) was > 100 µM. For the same molecule, the TGI (OVCAR-8 ovarian) was > 100 µM, the TGI (MDA-MB-435) was > 100 µM and the TGI (A549 NSCLC) was > 100 µM. The TGI (HOP-92 NSCLC) was > 100 µM, the TGI (OVCAR-5 ovarian) was > 100 µM and the TGI (NCI-H522 lung) was > 100 µM. For the same molecule, the TGI (UACC-257 melanoma) was > 100 µM, the TGI (OVCAR-3 ovarian) was > 100 µM and the TGI (NCI-H23 lung) was > 100 µM. For the same molecule, the TGI (TK-10 renal) was > 100 µM, the TGI (SF-268 CNS) was > 100 µM and the TGI (MDA-N) was > 100 µM. The TGI (ACHN renal) was > 100 µM, the TGI (HCT-116 colon) was > 100 µM and the TGI (RXF 393 renal) was > 100 µM. For the same molecule, the TGI (CAKI-1 renal) was > 100 µM, the TGI (RPMI-8226 leukemia) was > 100 µM and the TGI (UO-31 renal) was > 100 µM. The TGI (CCRF-CEM leukemia) was > 100 µM, the TGI (NCI/ADR-RES ovarian) was > 100 µM and the TGI (SW-620 colon) was > 100 µM. The TGI (NCI-H226 lung) was > 100 µM, the TGI (MCF7 breast) was > 100 µM and the TGI (HT29 colon) was > 100 µM. For the same molecule, the TGI (786-0 renal) was > 100 µM, the TGI (HCT-15 colon) was > 100 µM and the TGI (SNB-19 CNS) was > 100 µM. For the same molecule, the TGI (M14 melanoma) was > 100 µM, the TGI (MDA-MB-231 breast) was > 100 µM and the TGI (MALME-3M melanoma) was > 100 µM. The TGI (SK-MEL-28 melanoma) was > 100 µM, the TGI (SK-MEL-5 melanoma) was > 100 µM and the TGI (SK-OV-3 ovarian) was > 100 µM. For the same molecule, the TGI (KM12 colon) was > 100 µM, the TGI (PC-3 prostate) was > 100 µM and the TGI (SK-MEL-2 melanoma) was > 100 µM. The TGI (U251 CNS) was > 100 µM, the TGI (MOLT-4 leukemia) was > 100 µM and the TGI (T-47D breast) was > 100 µM. The TGI (COLO 205 colon) was > 100 µM, the TGI (OVCAR-4 ovarian) was > 100 µM and the TGI (DU-145 prostate) was > 100 µM. For the same molecule, the TGI (A498 renal) was > 100 µM, the TGI (SF-539 CNS) was > 100 µM and the TGI (HS 578T breast) was > 100 µM. The TGI (SNB-75 CNS) was > 100 µM, the TGI (HL-60(TB) leukemia) was > 100 µM and the TGI (SN12C renal) was > 100 µM.
With COc1ccc(C2=C(Cl)c3cc(OC)c(OC)cc3C2=O)cc1OC the TGI (LOX IMVI melanoma) was 24.7 µM, the TGI (SF-295 CNS) was > 100 µM and the TGI (HOP-62 NSCLC) was 30.4 µM. It also gave a TGI (HCC-2998 colon) of 38.9 µM, a TGI (BT-549 breast) of 29.5 µM and a TGI (EKVX NSCLC) of 37.9 µM. For the same molecule, the TGI (UACC-62 melanoma) was 29.6 µM, the TGI (OVCAR-8 ovarian) was 31.9 µM and the TGI (MDA-MB-435) was 29.4 µM. The TGI (A549 NSCLC) was > 100 µM, the TGI (HOP-92 NSCLC) was 4 µM and the TGI (OVCAR-5 ovarian) was 33.9 µM. For the same molecule, the TGI (NCI-H522 lung) was 27 µM, the TGI (UACC-257 melanoma) was 15.5 µM and the TGI (OVCAR-3 ovarian) was 6.56 µM. It also gave a TGI (NCI-H23 lung) of 26.7 µM, a TGI (TK-10 renal) of 25.6 µM and a TGI (SF-268 CNS) of 35.9 µM. It also gave a TGI (MDA-N) of 38.3 µM, a TGI (ACHN renal) of 17.2 µM and a TGI (HCT-116 colon) of 15.2 µM. The TGI (RXF 393 renal) was 18 µM, the TGI (CAKI-1 renal) was 4.24 µM and the TGI (RPMI-8226 leukemia) was 87.1 µM. The TGI (UO-31 renal) was 30.2 µM, the TGI (CCRF-CEM leukemia) was > 100 µM and the TGI (NCI/ADR-RES ovarian) was 51.5 µM. For the same molecule, the TGI (SW-620 colon) was 31.3 µM, the TGI (NCI-H226 lung) was > 100 µM and the TGI (IGROV1 ovarian) was 32.1 µM. For the same molecule, the TGI (SR leukemia) was > 100 µM, the TGI (MCF7 breast) was 27.9 µM and the TGI (HT29 colon) was > 100 µM. The TGI (786-0 renal) was 10.7 µM, the TGI (HCT-15 colon) was 20.7 µM and the TGI (SNB-19 CNS) was > 100 µM. For the same molecule, the TGI (M14 melanoma) was 18.1 µM, the TGI (MDA-MB-231 breast) was 36.5 µM and the TGI (MALME-3M melanoma) was 26 µM. For the same molecule, the TGI (SK-MEL-5 melanoma) was 31.7 µM, the TGI (SK-OV-3 ovarian) was 36.9 µM and the TGI (KM12 colon) was 32.2 µM. The TGI (SK-MEL-2 melanoma) was 28 µM, the TGI (MOLT-4 leukemia) was > 100 µM and the TGI (T-47D breast) was 10.9 µM. It also gave a TGI (COLO 205 colon) of 16.2 µM, a TGI (OVCAR-4 ovarian) of 25.5 µM and a TGI (DU-145 prostate) of 32.7 µM. It also gave a TGI (A498 renal) of 32 µM, a TGI (SF-539 CNS) of 35.9 µM and a TGI (HS 578T breast) of 87.4 µM. For the same molecule, the TGI (SNB-75 CNS) was > 100 µM, the TGI (HL-60(TB) leukemia) was > 100 µM and the TGI (SN12C renal) was 32.9 µM.
